Reference: patent publication US20110195505A1, “BACTERIAL STRAINS FOR BUTANOL PRODUCTION” (priority 2009, published 2011)
“And” between values parts separate entries of the source, which are not always exact repeats. Identical values can stand only once.

Legend:
BP63 (ΔfabZ1) [1] = assay: Shake flask growth rate of BP63 with isobutanol and oleic acid; format: cell-based, L. plantarum
Method: Four sets of conditions were prepared. For the first set, 20 mg/l oleic acid was added and isobutanol was added to 0, 1, 1.5, 2 and 2.5% final concentration. In the second set of flasks, 30 mg/L of oleic acid was added to the medium and the following final isobutanol concentrations were used: 0, 1, 1.5, 2, 2.5, and 3% w/v. The third and fourth set of the shake flask cultures were done at oleic acid concentrations of 50 and 55 mg/L. These flasks were placed in a shaking water bath at 30° C. at 80 RPM. Samples were taken at 2, 3, 4, and 5 hrs and the OD600 was measured.

BP63 (ΔfabZ1) [2] = assay: Growth yield (OD600) with oleic acid, fabZ1 deletion strain; format: cell-based, L. plantarum; conditions: for OD600 BP63 (ΔfabZ1): 24 hours, 30° C.
Method: (§1) Strain BP63 (ΔfabZ1, described in Example 4) and the parental strain BP15 (fabZ1^+, described in Example 3) were grown in semi-synthetic LAB medium, pH6, with 75 μg/ml uracil and 2.5 μg/mL hematin in the presence and absence of an unsaturated fatty acid, oleic acid. Cultures were prepared as described in General Methods.

BP15 (fabZ1^+) = assay: Growth yield (OD600) with oleic acid, parental strain; format: cell-based, L. plantarum; conditions: 24 hours, 30° C.
Method: as §1

[3] = test system: BP63 (L. plantarum PN0512ΔpyrFΔfabZ1); assay: Fatty acid supplements supporting growth of the fabZ1 mutant; format: cell-based; conditions: fatty acid supplied at 80 mg/L; overnight incubation, OD600
Method: With 100 or 200 mg/liter of oleic acid the growth of BP63 was equivalent to that of the fabZ1^+ control strain, BP15. […] Thus, we conclude that fabZ1 in L. plantarum has the same function as FabN in E. faecalis (Wang, H. and Cronan, J. E. 2004. Functional replacement of the FabA and FabB proteins of Escherichia coli fatty acid synthesis by Enterococcus faecalis FabZ and FabF homologs. J. Biol. Chem. 279, 34489-95). To further test the range of fatty acid supplements that support growth of the fabZ1 mutant, several other fatty acids were supplied at 80 mg/L to the semi-synthetic LAB medium as described above. BP63 and the parental control BP15 were inoculated from the working stocks. After overnight incubation, the OD600 was measured. The growth of BP15 was not inhibited by any of the fatty acids tested. The Table 9 below summarizes the results for the fabZ1 mutant strain, BP63.

BP63 (ΔfabZ1) [4] = assay: Growth of BP63 in the presence of isobutanol and oleic acid; format: cell-based, L. plantarum; conditions: for Growth (OD600) of BP63 (ΔfabZ1): 18 hours, 30° C.
Method: The purpose of these experiments was to see if the requirement for oleic acid changed in the presence of isobutanol. Semi-synthetic LAB medium, pH6, supplemented with 75 μg/mL uracil, 2.5 μg/mL hematin was used along with a series of varying concentrations of isobutanol and oleic acid. Oleic was added to the final concentrations of 0, 10, 20, 30, 40, and 50 mg/L. Isobutanol was added to the final concentrations of 0, 1.0, 1.5, 2.0, 2.5, and 3% (w/v). 2.5 mL of media was inoculated with […] of the BP63 working stock. The cultures were incubated at 30° C. without shaking for 18 hours. At 18 hours the OD600 was measured.

[5] = test system: L. plantarum strain PN0512; assay: Growth yield (OD600) in isobutanol, stearic acid fed and unfed cultures; format: cell-based, Lactobacillus plantarum; conditions: no fatty acid fed, 25 hours, 30° C.
Method: For growth yield experiments, 5 ml of medium with test fatty acids (10-500 mg per liter) and varying concentrations of isobutanol in 15 ml screw cap tubes was inoculated with 12.5 μl of the working stock giving an initial OD600 of 0.012. The caps were tightly sealed and incubated at 30° C. on a roller drum for 20 to 26 hours, at which time 1.0 ml was removed and OD600 was measured with a blank of medium amended with the fatty acid. All solvent concentrations are reported as % (w/v).
Growth of L. plantarum cultures in the media described in General Methods and containing varying concentrations of isobutanol was measured and compared with the cultures fed (supplemented with) stearic acid at a final concentration of 50 mg per liter of medium. Cultures were prepared as described in General Methods.

SMILES: CCCCCCCC/C=C\CCCCCCCC(=O)O [Oleic acid, oleic acid]
- growth rate of BP63 compared with parental strain BP15 (BP63 (ΔfabZ1) [1]; 55 mg/liter oleic acid, all concentrations of isobutanol): essentially identical
- growth of BP63 compared with fabZ1^+ control strain BP15 (BP63 (ΔfabZ1) [2]; 100 or 200 mg/liter of oleic acid): equivalent
- growth of BP63 (BP63 (ΔfabZ1) [2]; low concentrations of oleic acid up to 12 mg/liter): essentially no growth
- OD600 BP63 (ΔfabZ1) (BP63 (ΔfabZ1) [2]; oleic acid 1.5 mg/liter): 0.0091
- OD600 BP63 (ΔfabZ1) (BP63 (ΔfabZ1) [2]; oleic acid 3 mg/liter): 0.0081
- OD600 BP63 (ΔfabZ1) (BP63 (ΔfabZ1) [2]; oleic acid 6 mg/liter): 0.0084
- OD600 BP63 (ΔfabZ1) (BP63 (ΔfabZ1) [2]; oleic acid 12 mg/liter): 0.0234
- OD600 BP63 (ΔfabZ1) (BP63 (ΔfabZ1) [2]; oleic acid 25 mg/liter): 0.6943
- OD600 BP63 (ΔfabZ1) (BP63 (ΔfabZ1) [2]; oleic acid 100 mg/liter): 1.1452
- OD600 BP63 (ΔfabZ1) (BP63 (ΔfabZ1) [2]; oleic acid 200 mg/liter): 1.3725
- OD600 BP15 (fabZ1^+) (BP15 (fabZ1^+); oleic acid 1.5 mg/liter): 0.9449
- OD600 BP15 (fabZ1^+) (BP15 (fabZ1^+); oleic acid 3 mg/liter): 0.8375
- OD600 BP15 (fabZ1^+) (BP15 (fabZ1^+); oleic acid 6 mg/liter): 0.9459
- OD600 BP15 (fabZ1^+) (BP15 (fabZ1^+); oleic acid 12 mg/liter): 0.9681
- OD600 BP15 (fabZ1^+) (BP15 (fabZ1^+); oleic acid 25 mg/liter): 1.0069
- OD600 BP15 (fabZ1^+) (BP15 (fabZ1^+); oleic acid 100 mg/liter): 1.0915
- OD600 BP15 (fabZ1^+) (BP15 (fabZ1^+); oleic acid 200 mg/liter): 1.3187
- Supports growth of BP63 [3]: YES
- Growth (OD600) of BP63 (ΔfabZ1) (BP63 (ΔfabZ1) [4]; oleic acid 10 mg/liter, iso-butanol 0%): 0.0835
- Growth (OD600) of BP63 (ΔfabZ1) (BP63 (ΔfabZ1) [4]; oleic acid 20 mg/liter, iso-butanol 0%): 0.1046
- Growth (OD600) of BP63 (ΔfabZ1) (BP63 (ΔfabZ1) [4]; oleic acid 30 mg/liter, iso-butanol 0%): 0.153 and 0.1526
- Growth (OD600) of BP63 (ΔfabZ1) (BP63 (ΔfabZ1) [4]; oleic acid 40 mg/liter, iso-butanol 0%): 0.2976
- Growth (OD600) of BP63 (ΔfabZ1) (BP63 (ΔfabZ1) [4]; oleic acid 50 mg/liter, iso-butanol 0%): 1.181

SMILES: CC(C)CO [Isobutanol, isobutanol]
- OD600 unfed control ([5]; 2.3 % w/v isobutanol): 0.727
- OD600 unfed control ([5]; 2.5 % w/v isobutanol): 0.341
- OD600 unfed control ([5]; 2.7 % w/v isobutanol): 0.131
- OD600 unfed control ([5]; 2.9 % w/v isobutanol): 0.051
- effect of isobutanol on growth rate of fabZ1 mutant strain BP63 (BP63 (ΔfabZ1) [1]; shake flask, suboptimal concentrations of oleic acid, FIG. 1): stimulated growth
- Growth (OD600) of BP63 (ΔfabZ1) (BP63 (ΔfabZ1) [4]; oleic acid 0 mg/liter, iso-butanol 1%): 0.0383
- Growth (OD600) of BP63 (ΔfabZ1) (BP63 (ΔfabZ1) [4]; oleic acid 0 mg/liter, iso-butanol 1.5%): 0.0385
- Growth (OD600) of BP63 (ΔfabZ1) (BP63 (ΔfabZ1) [4]; oleic acid 0 mg/liter, iso-butanol 2%): 0.0402
- Growth (OD600) of BP63 (ΔfabZ1) (BP63 (ΔfabZ1) [4]; oleic acid 0 mg/liter, iso-butanol 2.5%): 0.038
- Growth (OD600) of BP63 (ΔfabZ1) (BP63 (ΔfabZ1) [4]; oleic acid 0 mg/liter, iso-butanol 3%): 0.0351
- Growth (OD600) of BP63 (ΔfabZ1) (BP63 (ΔfabZ1) [4]; oleic acid 10 mg/liter, iso-butanol 1%): 0.0829
- Growth (OD600) of BP63 (ΔfabZ1) (BP63 (ΔfabZ1) [4]; oleic acid 10 mg/liter, iso-butanol 1.5%): 0.0601
- Growth (OD600) of BP63 (ΔfabZ1) (BP63 (ΔfabZ1) [4]; oleic acid 10 mg/liter, iso-butanol 2%): 0.0701
- Growth (OD600) of BP63 (ΔfabZ1) (BP63 (ΔfabZ1) [4]; oleic acid 10 mg/liter, iso-butanol 2.5%): 0.0684
- Growth (OD600) of BP63 (ΔfabZ1) (BP63 (ΔfabZ1) [4]; oleic acid 10 mg/liter, iso-butanol 3%): 0.0397
- Growth (OD600) of BP63 (ΔfabZ1) (BP63 (ΔfabZ1) [4]; oleic acid 20 mg/liter, iso-butanol 1%): 0.2291
- Growth (OD600) of BP63 (ΔfabZ1) (BP63 (ΔfabZ1) [4]; oleic acid 20 mg/liter, iso-butanol 1.5%): 0.2375
- Growth (OD600) of BP63 (ΔfabZ1) (BP63 (ΔfabZ1) [4]; oleic acid 20 mg/liter, iso-butanol 2%): 0.068
- Growth (OD600) of BP63 (ΔfabZ1) (BP63 (ΔfabZ1) [4]; oleic acid 20 mg/liter, iso-butanol 2.5%): 0.0594
- Growth (OD600) of BP63 (ΔfabZ1) (BP63 (ΔfabZ1) [4]; oleic acid 20 mg/liter, iso-butanol 3%): 0.0399
- Growth (OD600) of BP63 (ΔfabZ1) (BP63 (ΔfabZ1) [4]; oleic acid 30 mg/liter, iso-butanol 1%, listed as iso-butanol): 0.7686
- Growth (OD600) of BP63 (ΔfabZ1) (BP63 (ΔfabZ1) [4]; oleic acid 30 mg/liter, iso-butanol 1%, listed as isobutanol): 0.769
- Growth (OD600) of BP63 (ΔfabZ1) (BP63 (ΔfabZ1) [4]; oleic acid 30 mg/liter, iso-butanol 1.5%, listed as iso-butanol): 0.7137
- Growth (OD600) of BP63 (ΔfabZ1) (BP63 (ΔfabZ1) [4]; oleic acid 30 mg/liter, iso-butanol 1.5%, listed as isobutanol): 0.714
- Growth (OD600) of BP63 (ΔfabZ1) (BP63 (ΔfabZ1) [4]; oleic acid 30 mg/liter, iso-butanol 2%): 0.402
- Growth (OD600) of BP63 (ΔfabZ1) (BP63 (ΔfabZ1) [4]; oleic acid 30 mg/liter, iso-butanol 2.5%): 0.1606
- Growth (OD600) of BP63 (ΔfabZ1) (BP63 (ΔfabZ1) [4]; oleic acid 30 mg/liter, iso-butanol 3%): 0.0995
- Growth (OD600) of BP63 (ΔfabZ1) (BP63 (ΔfabZ1) [4]; oleic acid 40 mg/liter, iso-butanol 1%): 1.2315
- Growth (OD600) of BP63 (ΔfabZ1) (BP63 (ΔfabZ1) [4]; oleic acid 40 mg/liter, iso-butanol 1.5%): 0.8852
- Growth (OD600) of BP63 (ΔfabZ1) (BP63 (ΔfabZ1) [4]; oleic acid 40 mg/liter, iso-butanol 2%): 0.8012
- Growth (OD600) of BP63 (ΔfabZ1) (BP63 (ΔfabZ1) [4]; oleic acid 40 mg/liter, iso-butanol 2.5%): 0.1793
- Growth (OD600) of BP63 (ΔfabZ1) (BP63 (ΔfabZ1) [4]; oleic acid 40 mg/liter, iso-butanol 3%): 0.1358
- Growth (OD600) of BP63 (ΔfabZ1) (BP63 (ΔfabZ1) [4]; oleic acid 50 mg/liter, iso-butanol 1%): 1.2567
- Growth (OD600) of BP63 (ΔfabZ1) (BP63 (ΔfabZ1) [4]; oleic acid 50 mg/liter, iso-butanol 1.5%): 1.257
- Growth (OD600) of BP63 (ΔfabZ1) (BP63 (ΔfabZ1) [4]; oleic acid 50 mg/liter, iso-butanol 2%): 0.5464
- Growth (OD600) of BP63 (ΔfabZ1) (BP63 (ΔfabZ1) [4]; oleic acid 50 mg/liter, iso-butanol 2.5%): 0.1654
- Growth (OD600) of BP63 (ΔfabZ1) (BP63 (ΔfabZ1) [4]; oleic acid 50 mg/liter, iso-butanol 3%): 0.1185
- effect of isobutanol on growth of the fabZ1 mutant (BP63 (ΔfabZ1) [4]; oleic acid supplied at sub-optimal levels): enhanced the growth
